Measured values taken from patent publication US6329377A, “Ketomethylene group-containing cysteine and serine protease inhibitors” (Cephalon, Inc., priority 2000, dated 2001).
Values belong to the molecule of their own block, whether it stands above or below them.

Tests used:
Format in all cases: biochemical
Calpain I = molecular target: T1, Calpain I (Homo sapiens, UniProt P07384); assay: Inhibition of calpain I activity (IC50, fluorescence plate reader); conditions: substrate 0.2 mM Succ-Leu-Tyr-MNA, pH 7.5
T1 construct: made in house
T1 sequence (P07384 1-714): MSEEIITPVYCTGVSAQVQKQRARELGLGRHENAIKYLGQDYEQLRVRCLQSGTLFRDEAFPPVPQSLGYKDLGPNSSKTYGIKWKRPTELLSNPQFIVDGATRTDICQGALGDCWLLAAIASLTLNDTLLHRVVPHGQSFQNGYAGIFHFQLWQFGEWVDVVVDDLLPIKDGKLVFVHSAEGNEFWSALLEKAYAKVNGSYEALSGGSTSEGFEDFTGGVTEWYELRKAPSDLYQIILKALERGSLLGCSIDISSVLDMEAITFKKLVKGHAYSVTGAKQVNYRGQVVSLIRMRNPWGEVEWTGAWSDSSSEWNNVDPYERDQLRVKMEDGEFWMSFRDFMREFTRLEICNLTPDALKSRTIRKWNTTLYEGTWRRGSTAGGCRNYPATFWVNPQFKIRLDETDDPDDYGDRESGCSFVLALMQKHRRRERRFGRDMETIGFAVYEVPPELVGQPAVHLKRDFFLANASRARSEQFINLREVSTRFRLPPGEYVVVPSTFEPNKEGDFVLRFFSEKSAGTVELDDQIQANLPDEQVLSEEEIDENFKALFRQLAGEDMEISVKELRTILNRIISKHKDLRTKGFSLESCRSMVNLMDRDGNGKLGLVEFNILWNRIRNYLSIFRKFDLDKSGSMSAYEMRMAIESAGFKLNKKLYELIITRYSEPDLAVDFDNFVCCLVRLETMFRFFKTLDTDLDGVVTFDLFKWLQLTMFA
T1 sequence (P04632 1-268 partner): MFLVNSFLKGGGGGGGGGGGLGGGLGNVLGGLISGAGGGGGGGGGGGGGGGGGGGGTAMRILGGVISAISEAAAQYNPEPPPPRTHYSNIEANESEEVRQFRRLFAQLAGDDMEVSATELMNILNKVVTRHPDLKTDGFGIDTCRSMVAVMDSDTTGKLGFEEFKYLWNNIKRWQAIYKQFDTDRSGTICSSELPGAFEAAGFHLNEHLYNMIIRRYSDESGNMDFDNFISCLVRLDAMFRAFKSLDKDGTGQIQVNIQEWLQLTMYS
Procedure: (§1) To evaluate inhibitory activity, stock solutions (40 times concentrated) of each compound to be tested were prepared in 100% anhydrous DMSO and 5 μL of each inhibitor preparation were aliquoted into each of three wells of a 96-well plate. Calpain I, prepared by a modification of the method of W. J. Lee et al. (Biochem. Internatl. 22: 163-171 (1990)), was diluted into assay buffer (i.e., 50 mM Tris, 50 mM NaCl, 1 mM EDTA, 1 mM EGTA, and 5 mM-mercaptoethanol, pH 7.5 including 0.2 mM Succ-Leu-Tyr-MNA) and 175 μL aliquoted into the same wells containing the independent inhibitor stocks as well as to positive control wells containing 5 μL DMSO, but no compound. To start the reaction, 20 μL of 50 mM CaCl2 in assay buffer was added to all wells of the plate, excepting three, which were used as background signal baseline controls. Substrate hydrolysis was monitored every 5 minutes for a total of 30 minutes using a Fluoroskan II fluorescence plate reader. Substrate hydrolysis in the absence of inhibitor was linear for up to 15 minutes.
Inhibition of calpain I activity was calculated as the percent decrease in the rate of substrate (S) hydrolysis in the presence of inhibitor (I) relative to the rate in its absence (o). Comparison between the inhibited and control rates was made within the linear range for substrate hydrolysis. For screening, compounds were tested at 10 μM. Compounds having 50% inhibition at 10 μM were considered active. The IC50s of inhibitors (concentration yielding 50% inhibition) were determined from the percent decrease in the rates of substrate hydrolysis in the presence of five to seven different concentrations of the test compound. The results were plotted as % inhibition versus log inhibitor concentration and the IC50 was calculated from linear regression of the data. Apparent second order rate constants were determined from analysis of reaction progress curves under pseudo-first order conditions. Each determination represents the means of three or more independent single cuvette analyses continually monitored via a Perkin-Elmer LS50B spectrofluorimeter. The rate of inhibition of hydrolysis was obtained by fitting the curve to the exponential equation (1): […]

cathepsin B = molecular target: T2, cathepsin B (Homo sapiens, UniProt P07858); assay: Inhibition of cathepsin B; conditions: Cbz-Phe-Arg-AMC 0.1 mM; for inhibition at 1 µM: pH 6, 1 uM, read-out: Cat B % I @ 1 uM; for Cat B % I @ 1 uM: pH 6.0
T2 construct: purchased Calbiochem 219364

cathepsin L = molecular target: T3, cathepsin L (Homo sapiens, UniProt P07711); assay: Inhibition of cathepsin L; conditions: Cbz-Phe-Arg-AMC 0.006 mM; for inhibition at 1 µM: pH 6, 1 uM, read-out: Cat L % I @ 1 uM; for Cat L % I @ 1 uM: pH 6.0
T3 construct: purchased Calbiochem 219402

thrombin = molecular target: T4, thrombin (Homo sapiens, UniProt P00734); assay: Inhibition of thrombin; conditions: 25 μM Bz-Phe-Val-Arg-AMC; for inhibition at 10 µM: pH 7.5, read-out: Thrombin % I @ 10 uM; for Thrombin % I @ 10 uM: pH 7.5
T4 construct: purchased Sigma Chem. Co. T-7009
Procedure: as §1
(§2) Inhibition of calpain I activity was calculated as the percent decrease in the rate of substrate (S) hydrolysis in the presence of inhibitor (I) relative to the rate in its absence (o). Comparison between the inhibited and control rates was made within the linear range for substrate hydrolysis. For screening, compounds were tested at 10 μM. Compounds having 50% inhibition at 10 μM were considered active. The IC50s of inhibitors (concentration yielding 50% inhibition) were determined from the percent decrease in the rates of substrate hydrolysis in the presence of five to seven different concentrations of the test compound. The results were plotted as % inhibition versus log inhibitor concentration and the IC50 was calculated from linear regression of the data. Apparent second order rate constants were determined from analysis of reaction progress curves under pseudo-first order conditions. Each determination represents the means of three or more independent single cuvette analyses continually monitored via a Perkin-Elmer LS50B spectrofluorimeter. The rate of inhibition of hydrolysis was obtained by fitting the curve to the exponential equation (1):
(§3) Additionally, because α-chymotrypsin is not a calcium sensitive enzyme and is constitutively active, following addition of inhibitor stocks to the 96 well plates, 100 μl of a 2-fold concentrated stock of enzyme in dilution buffer was first added and the reaction started by addition of 100 μl of a 2-fold concentrated stock of substrate in assay buffer. Substrate hydrolysis was monitored every 5 minutes up to 30 minutes using a Fluoroskan II ([…]).
Inhibition of thrombin (Sigma Chem. Co. Cat. #T-7009) was evaluated as described for chymotrypsin except that the assay was performed in 50 mM Tris, 10 mM CaCl2, pH 7.5 and the substrate was 25 μM Bz-Phe-Val-Arg-AMC (Bachem cat#I-1080).

α-chymotrypsin = molecular target: T5, α-chymotrypsin (Bos taurus, UniProt P00766); assay: Inhibition of α-chymotrypsin; conditions: 0.03 mM Succ-Ala-Ala-Pro-Phe-AMC; for inhibition at 10 µM: pH 7.5, 10 μM, read-out: Chymotrypsin % I @; for Chymotrypsin % I @: 10 μM, pH 7.5
T5 construct: purchased Sigma Chem. Co. C-3142
Procedure: as §1, §2, §3

T3 sequence (P07711 114-288 limits assumed): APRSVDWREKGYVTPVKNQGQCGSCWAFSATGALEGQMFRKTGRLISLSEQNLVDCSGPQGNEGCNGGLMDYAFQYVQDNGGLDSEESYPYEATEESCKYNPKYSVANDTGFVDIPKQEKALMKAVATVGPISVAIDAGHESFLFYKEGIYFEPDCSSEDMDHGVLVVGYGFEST
T3 sequence (P07711 292-333 limits assumed): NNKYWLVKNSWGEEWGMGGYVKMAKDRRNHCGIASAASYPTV

Compound: CC(C)CC(CC(=O)N1CCN(c2ccccc2)CC1)C(=O)N[C@H](C=O)CC(C)C (single isomer, unassigned) [Compound 16g-I, Ph-Piperazine-COCH2 CH(iBu)CO-Leu-H]
- IC50 (Calpain I): 227 nM
- Cat B % I @ 1 uM (cathepsin B): 100%
- Cat L % I @ 1 uM (cathepsin L): 97%
- inhibition at 10 µM (thrombin): 0%
- inhibition at 10 µM (α-chymotrypsin): 0%

Compound: CCNC(=O)C(=O)C(CC)NC(=O)C(CC(=O)CCCCc1ccccc1)CC(C)C (stereo not drawn) [Compound 8a, Ph(CH2)4 COCH2 CH(iBu)CO-Abu-CONHEt]
- IC50 (Calpain I): 8440 nM
- inhibition at 1 µM (cathepsin B): 10%
- inhibition at 1 µM (cathepsin L): 81%
- inhibition at 10 µM (thrombin): 0%
- inhibition at 10 µM (α-chymotrypsin): 0%

Compound: CCNC(=O)C(=O)C(CC)NC(=O)C(CC(=O)C(c1ccccc1)c1ccccc1)CC(C)C (stereo not drawn) [Compound 8c, Ph2 CHCOCH2 CH(iBu)CO-Abu-CONHEt]
- IC50 (Calpain I): 1730 nM
- inhibition at 1 µM (cathepsin B): 100%
- inhibition at 1 µM (cathepsin L): 100%
- inhibition at 10 µM (thrombin): 0%
- inhibition at 10 µM (α-chymotrypsin): 6%

Compound: CCNC(=O)C(=O)C(CC)NC(=O)C(CC(=O)[C@@H](CC)c1ccccc1)CC(C)C (stereo partly drawn) [Compound 8b, CH3 CH2 CH(Ph)COCH2 CH(iBu)CO-Abu-CONHEt]
- IC50 (Calpain I): 6690 nM
- inhibition at 1 µM (cathepsin B): 84%
- inhibition at 1 µM (cathepsin L): 98%
- inhibition at 10 µM (thrombin): 0%
- inhibition at 10 µM (α-chymotrypsin): 0%

Compound: CC(C)CC(CC(=O)C1c2ccccc2Oc2ccccc21)C(=O)N[C@H](C=O)CC(C)C (stereo partly drawn) [Compound 16d, Xanthene-COCH2 CH(iBu)CO-Leu-H]
- inhibition at 1 µM (cathepsin B): 76%
- inhibition at 1 µM (cathepsin L): 100%
- inhibition at 10 µM (thrombin): 25%
- inhibition at 10 µM (α-chymotrypsin): 98%

Compound: CC(C)CC(CC(=O)N1CCc2ccccc2C1)C(=O)N[C@H](C=O)Cc1ccccc1 (single isomer, unassigned) [Compound 16f-II, 2-THIQ-COCH2 CH(iBu)CO-Phe-H (Diastereomer)]
- IC50 (Calpain I): 1000 nM
- Cat B % I @ 1 uM (cathepsin B): 71%
- Cat L % I @ 1 uM (cathepsin L): 52%
- Thrombin % I @ 10 uM (thrombin): 0%
- Chymotrypsin % I @ (α-chymotrypsin): 12%

Compound: CC(C)CC(CC(=O)N1CCN(c2ccccc2)CC1)C(=O)N[C@H](C=O)CC(C)C (single isomer, unassigned) [Compound 16g-II, Ph-Piperazine-COCH2 CH(iBu)CO-Leu-H]
- IC50 (Calpain I): 4500 nM
- Cat B % I @ 1 uM (cathepsin B): 67%
- Cat L % I @ 1 uM (cathepsin L): 35%
- Thrombin % I @ 10 uM (thrombin): 0%
- Chymotrypsin % I @ (α-chymotrypsin): 0%

Compound: CC(C)CC(CC(=O)CCCCc1ccccc1)C(=O)N[C@H](C=O)CC(C)C (stereo partly drawn) [Compound 16a, Ph(CH2)4 COCH2 CH(iBu)CO-Leu-H]
- inhibition at 1 µM (cathepsin B): 97%
- inhibition at 1 µM (cathepsin L): 100%
- inhibition at 10 µM (thrombin): 0%
- inhibition at 10 µM (α-chymotrypsin): 61%

Compound: CCNC(=O)C(=O)C(CC)NC(=O)C(CC(=O)[C@H](CC(C)C)NC(=O)OCc1ccccc1)CC(C)C (stereo partly drawn) [Compound 8e, Z-Leu-CH2 CH(iBu)CO-Abu-CONHEt]
- IC50 (Calpain I): 380 nM
- inhibition at 1 µM (cathepsin B): 100%
- inhibition at 1 µM (cathepsin L): 95%
- inhibition at 10 µM (thrombin): 0%
- inhibition at 10 µM (α-chymotrypsin): 0%

Compound: CCNC(=O)C(=O)C(CC)NC(=O)C(CC(=O)C1c2ccccc2Oc2ccccc21)CC(C)C (stereo not drawn) [Compound 8d, Xanthene-COCH2 CH(iBu.)CO-Abu-CONHEt]
- IC50 (Calpain I): 485 nM
- inhibition at 1 µM (cathepsin B): 78%
- inhibition at 1 µM (cathepsin L): 100%
- inhibition at 10 µM (thrombin): 10%
- inhibition at 10 µM (α-chymotrypsin): 7%

The remaining molecules from weak to strong by IC50 (Calpain I), led by results:

- IC50 (Calpain I): 130 nM
- inhibition at 1 µM (cathepsin B): 98%
- inhibition at 1 µM (cathepsin L): 100%
- inhibition at 10 µM (thrombin): 13%
- inhibition at 10 µM (α-chymotrypsin): 93%
Compound: CCNC(=O)C(=O)C(CC(C)C)NC(=O)C(CC(=O)C1c2ccccc2Oc2ccccc21)CC(C)C (stereo not drawn) [Compound 8f, Xanthene-CO(CH2 CH(iBu)CO-Leu-CONHEt]

- IC50 (Calpain I): 71 nM
Compound: CC(C)CC(CC(=O)CN(CC(C)C)C(=O)OCc1ccccc1)C(=O)N[C@H](C=O)CC(C)C (stereo partly drawn) [Compound 32, Z-N(iBu)CH2 COCH2 CH(iBu)CON H-Leu-H]

- IC50 (Calpain I): 55 nM
- inhibition at 1 µM (cathepsin B): 99%
- inhibition at 1 µM (cathepsin L): 100%
- inhibition at 10 µM (thrombin): 0%
- inhibition at 10 µM (α-chymotrypsin): 21%
Compound: CCC(C(=O)CC(CC(C)C)C(=O)N[C@H](C=O)CC(C)C)c1ccccc1 (stereo partly drawn) [Compound 16b, CH3 CH2 CH(Ph)COCH2 CH(iBu)CO-Leu-H]

- IC50 (Calpain I): 50 nM
- inhibition at 1 µM (cathepsin B): 97%
- inhibition at 1 µM (cathepsin L): 100%
- inhibition at 10 µM (thrombin): 1%
- inhibition at 10 µM (α-chymotrypsin): 62%
Compound: CC(C)CC(CC(=O)C(c1ccccc1)c1ccccc1)C(=O)N[C@H](C=O)CC(C)C (stereo partly drawn) [Compound 16c, Ph2 CHCOCH2 CH(iBu)CO-Leu-H]

- IC50 (Calpain I): 28 nM
- Cat B % I @ 1 uM (cathepsin B): 100%
- Cat L % I @ 1 uM (cathepsin L): 96%
- inhibition at 10 µM (thrombin): 0%
- Chymotrypsin % I @ (α-chymotrypsin): 39%
Compound: CC(C)CC(CC(=O)N1CCc2ccccc2C1)C(=O)N[C@H](C=O)Cc1ccccc1 (single isomer, unassigned) [Compound 16f-I, 2-THIQ-COCH2 CH(iBu)Cd-Phe-H]
